# Source: patent publication US8344008B2 (Janssen Pharmaceutica NV, priority 2007, dated 2013)
# Target: T1, recombinant human LTA4 hydrolase (rhLTA4H) (Homo sapiens, UniProt P09960)
# T1 construct: made in house; host or cells: Spodoptera frugiperda (Sf-9) cells, baculovirus (pFastBac1)
# T1 sequence (P09960 1-611): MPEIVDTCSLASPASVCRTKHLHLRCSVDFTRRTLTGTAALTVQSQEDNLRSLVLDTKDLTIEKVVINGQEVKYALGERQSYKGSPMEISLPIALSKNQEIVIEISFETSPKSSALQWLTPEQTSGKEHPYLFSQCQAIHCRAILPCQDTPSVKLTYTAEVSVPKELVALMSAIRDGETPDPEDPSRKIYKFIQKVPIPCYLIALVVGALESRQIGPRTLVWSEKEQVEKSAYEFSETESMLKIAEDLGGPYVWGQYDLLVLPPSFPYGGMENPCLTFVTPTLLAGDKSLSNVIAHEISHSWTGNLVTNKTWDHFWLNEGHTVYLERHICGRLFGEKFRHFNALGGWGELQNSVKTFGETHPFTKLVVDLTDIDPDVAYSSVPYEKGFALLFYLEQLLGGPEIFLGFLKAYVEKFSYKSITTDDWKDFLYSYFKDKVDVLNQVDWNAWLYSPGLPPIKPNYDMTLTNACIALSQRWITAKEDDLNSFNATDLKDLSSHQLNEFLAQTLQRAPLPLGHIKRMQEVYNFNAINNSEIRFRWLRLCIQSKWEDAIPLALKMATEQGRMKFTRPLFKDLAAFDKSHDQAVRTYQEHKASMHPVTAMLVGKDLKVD
# Test: Recombinant Human LTA4 Hydrolase Assay for LTA4 Hydrolase Inhibitor Activity
# Type: biochemical
# Details: average of results obtained; LTB4 quantified by enzyme-linked immunoassay
# Outline: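 LTB4 formation, quantified by EIA after 10 min at rt, was the read-out once 9 ng LTA4 (free acid) was added to recombinant human enzyme (36 ng, Sf-9 expressed) that had sat 10 min with compound. Buffer: 0.1 M potassium phosphate pH 7.4 with fatty-acid-free BSA; IC50 by 4-parameter fit.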
row,SMILES,Ki [nM]
1,"CS(=O)(=O)N[C@@H]1C[C@H]2CC[C@@H](C1)N2CCOc1ccc(Oc2nc3ccc(Cl)cc3s2)cc1 [Example 225, meso-exo-N-(8-{2-[4-(6-Chloro-benzothiazol-2-yloxy)-phenoxy]-ethyl}-8-aza-bicyclo[3.2.1]oct-3-yl)-methanesulfonamide]",116
2,"NC(=O)N1[C@@H]2CC[C@H]1C[C@@H](NCc1ccc(Oc3nc4cccc(F)c4s3)cc1)C2 [Example 226, meso-endo-3-[4-(7-Fluoro-benzothiazol-2-yloxy)-benzylamino]-8-aza-bicyclo[3.2.1]octane-8-carboxylic acid amide]",90
3,"CS(=O)(=O)N1C[C@@H]2C[C@H]1CN2Cc1ccc(Oc2nc3ccc(F)cc3s2)cc1 [Example 230, (S,S)-6-Fluoro-2-[4-(5-methanesulfonyl-2,5-diaza-bicyclo[2.2.1]hept-2-ylmethyl)-phenoxy]-benzothiazole]",397
4,"CS(=O)(=O)N1[C@@H]2CC[C@H]1C[C@@H](NCCOc1ccc(Oc3nc4cc(F)ccc4s3)cc1)C2 [Example 233, meso-endo-{2-[4-(5-Fluoro-benzothiazol-2-yloxy)-phenoxy]-ethyl}-(8-methanesulfonyl-8-aza-bicyclo[3.2.1]oct-3-yl)-amine]",225
5,"NC(=O)N[C@@H]1C[C@H]2CC[C@@H](C1)N2CCOc1ccc(Oc2nc3ccc(Cl)cc3s2)cc1 [Example 234, meso-exo-(8-{2-[4-(6-Chloro-benzothiazol-2-yloxy)-phenoxy]-ethyl}-8-aza-bicyclo[3.2.1]oct-3-yl)-urea]",72
6,"CS(=O)(=O)N1C[C@H]2C[C@@H]1CN2Cc1ccc(Oc2nc3ccc(Cl)cc3s2)cc1 [Example 236, (R,R)-6-Chloro-2-[4-(5-methanesulfonyl-2,5-diaza-bicyclo[2.2.1]hept-2-ylmethyl)-phenoxy]-benzothiazole]",169
7,"CS(=O)(=O)N1[C@@H]2CC[C@H]1C[C@H](NCCc1ccc(Oc3nc4c(Cl)cccc4s3)cc1)C2 [Example 237, meso-exo-{2-[4-(4-Chloro-benzothiazol-2-yloxy)-phenyl]-ethyl}-(8-methanesulfonyl-8-aza-bicyclo[3.2.1]oct-3-yl)-amine]",244
8,"CS(=O)(=O)N1C[C@@H]2C[C@H]1CN2CCc1ccc(Oc2nc3ccc(Cl)cc3s2)cc1 [Example 238, (S,S)-6-Chloro-2-{4-[2-(5-methanesulfonyl-2,5-diaza-bicyclo[2.2.1]hept-2-yl)-ethyl]-phenoxy}-benzothiazole]",651
9,"NC(=O)N[C@H]1C[C@H]2CC[C@@H](C1)N2CCc1ccc(Oc2nc3ccc(Cl)cc3s2)cc1 [Example 239, meso-endo-(8-{2-[4-(6-Chloro-benzothiazol-2-yloxy)-phenyl]-ethyl}-8-aza-bicyclo[3.2.1]oct-3-yl)-urea]",130
10,"CC(=O)N[C@@H]1C[C@H]2CC[C@@H](C1)N2CCOc1ccc(Oc2nc3c(Cl)cccc3s2)cc1 [Example 240, meso-exo-N-(8-{2-[4-(4-Chloro-benzothiazol-2-yloxy)-phenoxy]-ethyl}-8-aza-bicyclo[3.2.1]oct-3-yl)-acetamide]",510
11,"CS(=O)(=O)N1C[C@H]2C[C@@H]1CN2CCc1ccc(Oc2nc3c(F)cccc3s2)cc1 [Example 241, (R,R)-4-Fluoro-2-{4-[2-(5-methanesulfonyl-2,5-diaza-bicyclo[2.2.1]hept-2-yl)-ethyl]-phenoxy}-benzothiazole]",281
12,"NC(=O)N[C@@H]1C[C@H]2CC[C@@H](C1)N2CCc1ccc(Oc2nc3cc(F)ccc3s2)cc1 [Example 242, meso-exo-(8-{2-[4-(5-Fluoro-benzothiazol-2-yloxy)-phenyl]-ethyl}-8-aza-bicyclo[3.2.1]oct-3-yl)-urea]",398
13,CC(=O)N1CC2CCC(C1)N2CCOc1ccc(Oc2nc3c(Cl)cccc3s2)cc1 [Example 247],167
14,"CS(=O)(=O)N1[C@@H]2CC[C@H]1C[C@@H](NCCOc1ccc(Oc3nc4cccc(Cl)c4s3)cc1)C2 [Example 248, meso-endo-{2-[4-(7-Chloro-benzothiazol-2-yloxy)-phenoxy]-ethyl}-(8-methanesulfonyl-8-aza-bicyclo[3.2.1]oct-3-yl)-amine]",3130
15,"CC(=O)N1CC2CCC(C1)N2CCc1ccc(Oc2nc3ccc(Cl)cc3s2)cc1 [Example 250, meso-1-(8-{2-[4-(6-Chloro-benzothiazol-2-yloxy)-phenyl]-ethyl}-3,8-diaza-bicyclo[3.2.1]oct-3-yl)-ethanone]",232
16,"NC(=O)N1C[C@H]2C[C@@H]1CN2CCc1ccc(Oc2nc3c(Cl)cccc3s2)cc1 [Example 252, (R,R)-5-{2-[4-(4-Chloro-benzothiazol-2-yloxy)-phenyl]-ethyl}-2,5-diaza-bicyclo[2.2.1]heptane-2-carboxylic acid amide]",108
17,"CC(=O)N1C[C@@H]2C[C@H]1CN2CCc1ccc(Oc2nc3c(Cl)cccc3s2)cc1 [Example 253, (S,S)-1-(5-{2-[4-(4-Chloro-benzothiazol-2-yloxy)-phenyl]-ethyl}-2,5-diaza-bicyclo[2.2.1]hept-2-yl)-ethanone]",2600
18,"CC(=O)N[C@@H]1C[C@H]2CC[C@@H](C1)N2CCc1ccc(Oc2nc3cccc(F)c3s2)cc1 [Example 254, meso-exo-N-(8-{2-[4-(7-Fluoro-benzothiazol-2-yloxy)-phenyl]-ethyl}-8-aza-bicyclo[3.2.1]oct-3-yl)-acetamide]",115
19,"Cc1ccc2sc(Oc3ccc(OCCN4C[C@@H]5C[C@H]4CN5S(C)(=O)=O)cc3)nc2c1 [Example 255, (S,S)-2-{4-[2-(5-Methanesulfonyl-2,5-diaza-bicyclo[2.2.1]hept-2-yl)-ethoxy]-phenoxy}-5-methyl-benzothiazole]",277

# Now from value to compound:
row,Ki [nM],SMILES
1,8,"CC(=O)N[C@@H]1C[C@H]2CC[C@@H](C1)N2CCOc1ccc(Oc2nc3ccc(F)cc3s2)cc1 [Example 227, meso-exo-N-(8-{2-[4-(6-Fluoro-benzothiazol-2-yloxy)-phenoxy]-ethyl}-8-aza-bicyclo[3.2.1]oct-3-yl)-acetamide]"
2,20,"NC(=O)N[C@@H]1C[C@H]2CC[C@@H](C1)N2Cc1ccc(Oc2nc3c(Cl)cccc3s2)cc1 [Example 229, meso-exo-{8-[4-(4-Chloro-benzothiazol-2-yloxy)-benzyl]-8-aza-bicyclo[3.2.1]oct-3-yl}-urea]"
3,17,"CS(=O)(=O)N[C@@H]1C[C@H]2CC[C@@H](C1)N2CCc1ccc(Oc2nc3ccc(F)cc3s2)cc1 [Example 231, meso-exo-N-(8-{2-[4-(6-Fluoro-benzothiazol-2-yloxy)-phenyl]-ethyl}-8-aza-bicyclo[3.2.1]oct-3-yl)-methanesulfonamide]"
4,72,"CS(=O)(=O)N1C[C@@H]2C[C@H]1CN2CCc1ccc(Oc2nc3cccc(F)c3s2)cc1 [Example 232, (S,S)-7-Fluoro-2-{4-[2-(5-methanesulfonyl-2,5-diaza-bicyclo[2.2.1]hept-2-yl)-ethyl]-phenoxy}-benzothiazole]"
5,23,"CC(=O)N1C[C@H]2C[C@@H]1CN2CCc1ccc(Oc2nc3cc(F)ccc3s2)cc1 [Example 235, (R,R)-1-(5-{2-[4-(5-Fluoro-benzothiazol-2-yloxy)-phenyl]-ethyl}-2,5-diaza-bicyclo[2.2.1]hept-2-yl)-ethanone]"
6,61,"CS(=O)(=O)N1CC2CCC(C1)N2CCOc1ccc(Oc2nc3ccc(F)cc3s2)cc1 [Example 243, meso-6-Fluoro-2-{4-[2-(3-methanesulfonyl-3,8-diaza-bicyclo[3.2.1]oct-8-yl)-ethoxy]-phenoxy}-benzothiazole]"
7,12,"NC(=O)N1C[C@H]2C[C@@H]1CN2CCc1ccc(Oc2nc3cc(F)ccc3s2)cc1 [Example 244, (R,R)-5-{2-[4-(5-Fluoro-benzothiazol-2-yloxy)-phenyl]-ethyl}-2,5-diaza-bicyclo[2.2.1]heptane-2-carboxylic acid amide]"
8,12,"NC(=O)N1C[C@H]2C[C@@H]1CN2CCc1ccc(Oc2nc3cccc(F)c3s2)cc1 [Example 245, (R,R)-5-{2-[4-(7-Fluoro-benzothiazol-2-yloxy)-phenyl]-ethyl}-2,5-diaza-bicyclo[2.2.1]heptane-2-carboxylic acid amide]"
9,40,"NC(=O)N1C[C@H]2C[C@@H]1CN2CCc1ccc(Oc2nc3ccc(Cl)cc3s2)cc1 [Example 246, (R,R)-5-{2-[4-(6-Chloro-benzothiazol-2-yloxy)-phenyl]-ethyl}-2,5-diaza-bicyclo[2.2.1]heptane-2-carboxylic acid amide]"
10,11,"CC(=O)N1C[C@H]2C[C@@H]1CN2CCOc1ccc(Oc2nc3cccc(F)c3s2)cc1 [Example 249, (R,R)-1-(5-{2-[4-(7-Fluoro-benzothiazol-2-yloxy)-phenoxy]-ethyl}-2,5-diaza-bicyclo[2.2.1]hept-2-yl)-ethanone]"
11,33,"CS(=O)(=O)N[C@@H]1C[C@H]2CC[C@@H](C1)N2CCOc1ccc(Oc2nc3cccc(F)c3s2)cc1 [Example 251, meso-exo-N-(8-{2-[4-(7-Fluoro-benzothiazol-2-yloxy)-phenoxy]-ethyl}-8-aza-bicyclo[3.2.1]oct-3-yl)-methanesulfonamide]"
